The target of this experiment is T1, ComFB (FB; Bsu FB) (Bacillus subtilis, UniProt P39146).
T1 sequence (P39146 1-98): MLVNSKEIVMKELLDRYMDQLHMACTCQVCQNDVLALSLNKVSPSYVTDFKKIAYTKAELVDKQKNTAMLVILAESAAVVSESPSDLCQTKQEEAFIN
Kind of experiment: isothermal titration calorimetry, one-site model. The experiment is classed as binding.

The text below walks through data of publication PMC12265714 (bioRxiv, 2025).

In turn, `Nc1nc2c(ncn2[C@@H]2O[C@@H]3CO[P@](=O)(O)O[C@H]4[C@@H](O)[C@H](n5cnc6c(=O)[nH]c(N)nc65)O[C@@H]4CO[P@](=O)(O)O[C@H]3[C@H]2O)c(=O)[nH]1` [c-di-GMP] returned a Kd of 0.14 ± 0.05 µM.

Compound `Nc1ncnc2c1ncn2[C@@H]1O[C@@H]2COP(=O)(O)O[C@H]3[C@@H](O)[C@H](n4cnc5c(N)ncnc54)O[C@@H]3COP(=O)(O)O[C@H]2[C@H]1O` [c-di-AMP] yielded a Kd of 69.1 ± 139 µM.
